Results on 18 compounds are retold here after PubChem BioAssay (NCI).

Common to all, as to assay: NCI-60 cell line screen, 48 h
Assay [1] has as its system K-562 leukemia.
In assay [2] the test system is SW-620 colon.
For assay [3], the system named is UACC-257 melanoma.
Assay [4] has as its system SK-MEL-5 melanoma.
The subject of assay [5] is LXFL 529 NSCLC.
In assay [6] the test system is SF-539 CNS.
Assay [7] deals with DLD-1 colon.
Assay [8] relates to HCC-2998 colon.
Assay [9] deals with SR leukemia.
Assay [10] has as its system CCRF-CEM leukemia.

Molecules are shown by their SMILES. Where “and” joins values, the source holds several entries; their conditions need not be identical. Equal entries are not always repeated.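 Five concentrations, 48 hours, 96-well plates. Abbreviation: GI50, concentration required for 50% inhibition of growth. TGI: concentration producing complete growth inhibition.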

For the compound `Cn1c2ccccc2c(=O)c2c(O)cc3c(c21)CC(C1(C)CO1)O3` (stereo unspecified), the TGI in assay [1] came out at 7.84 µM; in assay [2], 3.38 µM; in assay [3], 13.1 µM; in [4], 3.88 µM; in assay [5] it was 1.5 µM; in assay [6] it was 10.8 µM. For the same compound, the TGI came out at 26.1 µM in [7] and 5.4 µM in [8].
On to `COC(C(=O)C(O)C(C)O)C1Cc2cc3cc(OC4CC(OC5CC(O)C(O)C(C)O5)C(O)C(C)O4)c(C)c(O)c3c(O)c2C(=O)C1OC1CC(OC2CC(O)C(OC3CC(C)(O)C(O)C(C)O3)C(C)O2)C(O)C(C)O1` (stereo unspecified), for which the GI50 in [1] was 11.2 ng/mL and 2.32 ng/mL; in [2], 12.1 ng/mL and 2.36 ng/mL; in assay [3], 12.2 ng/mL and 1.15 ng/mL; in [4] it was 11.2 ng/mL and 1.86 ng/mL; in assay [9], 11.2 ng/mL and 1910 ng/mL; in [10] it was 11.2 ng/mL and 0.853 ng/mL. Further, the GI50 in assay [6] was 11.2 ng/mL and 0.474 ng/mL; in [7] it was 0.0828 ng/mL; in [8], 11.7 ng/mL and 0.297 ng/mL. Moreover, the TGI is 59.8 ng/mL and 27 ng/mL in [3]; 112000 ng/mL and > 150000 ng/mL in assay [9]; 150 ng/mL in assay [7].
Consider `NC1=NN(c2ccccc2)C(=O)C1/C(=N\NC(=O)c1cc2ccccc2cc1O)C(=O)Nc1cccc(C(F)(F)F)c1` (stereo unspecified), for which the TGI in [2] is over 100 µM; in assay [3] it was 71.1 µM; in assay [4] it was 51.8 µM; in [10], 34.1 µM; in [5] it was over 100 µM; in assay [7], over 100 µM. In [8], this compound showed a TGI of over 100 µM.
With `COc1ccc2c(c1)[n+]([O-])c(-c1ccc(Br)cc1)c(N)[n+]2[O-]`, the TGI in assay [1] was over 100 µM; in [2] it was over 100 µM; in assay [3] it was over 100 µM; in assay [4] it was 36.5 µM; in assay [9] it was over 100 µM; in assay [10] it was over 100 µM. Besides, the TGI in assay [6] and in [7] was over 100 µM in each case.
As to `O=C(CC1(O)C(=O)Nc2ccccc21)c1ccc(F)cc1` (stereo unspecified), the TGI in assay [1], in [2], in assay [3], in assay [4], in [5] and in assay [6] was over 100 µM in each case. The compound further returned a TGI in [7] of over 100 µM.
Turning to `CC(=O)[CH-]C(=O)c1ccccc1.CC(=O)[CH-]C(=O)c1ccccc1.CC1(C)OCC(C2OC3OC(C)(C)OC3C2[O-])O1.CC1(C)OCC(C2OC3OC(C)(C)OC3C2[O-])O1.[Ti+4]` (stereo unspecified), the GI50 is 14.2 µM in assay [1]; 10.7 µM in [2]; 3.49 µM in assay [10]; 11.5 µM in [5]; 13.6 µM in assay [6]; 18.5 µM in assay [7]. For the same compound, the TGI in assay [1] was 71.4 µM; in assay [2], 29.7 µM; in assay [10] it was 39.8 µM; in [5], 24 µM; in [6] it was 28 µM; in assay [7], 52.5 µM.
As for `Cc1cc(Cl)ccc1NC(=O)CCCC(=O)C1CCC/C1=N\NC(=O)CC#N` (stereo unspecified), the TGI in [1], in [2], in assay [3], in assay [4], in assay [10] and in [5] was over 100 µM throughout. Besides, the TGI in [6] and in assay [7] was over 100 µM in each case.
In the case of `O=C1C=CC(=Nc2ccccc2)c2ccccc21`, the TGI in assay [1] is 42.6 µM; in [2] it was over 100 µM; in assay [3] it was 8.39 µM; in [4] it was 2.6 µM; in [9], 37.1 µM; in [10], over 100 µM. Moreover, the TGI in [6] came to 29 µM; in assay [8], 23.1 µM.
For the compound `CCN(Cc1ccccc1Cl)c1ccc(CO)c(Cl)c1`, the GI50 in [1] was 1.63 µM; in assay [2] it was 1.61 µM; in [3] it was 0.094 µM; in assay [4], 4.11 µM; in assay [9], 17.3 µM; in [10] it was 16.6 µM. Further, the results for the GI50 in [6] and in [8] were 15 µM and 11.9 µM, respectively. Further, the TGI in assay [1] came out at 14.6 µM; in assay [2], 16.8 µM; in assay [3], 0.461 µM; in assay [4], 17.1 µM; in [9], 45.1 µM; in assay [10] it was 38.3 µM. The TGI is 29 µM in assay [6] and 25.4 µM in assay [8].
In the case of `O=C(N/C(=C\c1ccc(/C=C(\NC(=O)c2ccccc2)c2nc3cc(Cl)ccc3[nH]2)cc1)c1nc2cc(Cl)ccc2[nH]1)c1ccccc1`, the TGI in [1] was 71 µM; in assay [2], over 100 µM; in assay [3], over 100 µM; in assay [4], 47.8 µM; in assay [10] it was over 100 µM; in [5], over 100 µM. Further, the values for the TGI in [6] and in [7] were 78.5 µM and over 100 µM, respectively.
As to `CCCC[n+]1c(/C=C\c2c(OC)cc(OC)cc2OC)ccc2ccccc21`, the GI50 is 0.294 µM in assay [1]; 0.814 µM in assay [2]; 0.38 µM in [3]; 0.299 µM in assay [4]; 0.306 µM in assay [9]; 1.48 µM in assay [10]. The GI50 in assay [6] is 1.44 µM; in assay [8], 0.946 µM. In addition, the TGI in assay [1] is over 38.6 µM; in [2], 10 µM; in assay [3], 2.79 µM; in [4], 1.29 µM; in assay [9] it was 30.3 µM; in [10], 18.4 µM. The TGI is 4.65 µM in assay [6] and 7.83 µM in [8].
On to `COc1cccc(-n2cc(-c3nc(Nc4cc(C)[nH]n4)c4ccccc4n3)nn2)c1`, for which the GI50 was 2.59 µM in assay [1]; 5.22 µM in assay [2]; 7.75 µM in assay [3]; 1.07 µM in assay [4]; 2.03 µM in assay [9]; 2.82 µM in assay [10]. Further, the GI50 was 4.25 µM in assay [6] and 5.86 µM in assay [8]. For the same compound, the TGI was determined as 14.7 µM in assay [1]; 14.9 µM in assay [2]; 15 µM in [3]; 4.06 µM in assay [4]; 13.5 µM in assay [9]; 16.8 µM in assay [10]. The TGI was determined as 11.1 µM in assay [6] and 13.3 µM in assay [8].
As for `CC1(C)CCCC(C)(C2CCC3(C)C2C(O)CC2C4(C)CCC(O)C(C)(C)C4C(O)CC23C)O1` (stereo unspecified), the TGI in assay [1] came to 25.1 µM; in assay [2], 41.6 µM; in assay [3], 28.1 µM; in assay [4], 17.6 µM; in [9], 86.1 µM; in assay [10], 8.67 µM. In addition, the TGI is 28.1 µM in assay [6] and 27.9 µM in assay [8].
In the case of `Cc1[nH]c(C(=O)Nc2ccccc2OC2CCNCC2)c(Cl)c1Cl`, the GI50 in [1] is 1.66 µM; in assay [2], 0.99 µM; in [3] it was 1.04 µM; in [4], 0.88 µM; in assay [9], 1.46 µM; in [10], 1.37 µM. Moreover, the GI50 in assay [6] is 0.856 µM; in assay [8], 1.27 µM. The TGI in assay [1] was determined as 5.26 µM; in [2], 2.39 µM; in assay [3], 2.12 µM; in assay [4], 1.59 µM; in [9], 5.69 µM; in assay [10], 3.89 µM. Further, the results for the TGI in assay [6] and in [8] were 1.56 µM and 3.48 µM, respectively.
With `COC1=C(Br)C(O)C2(C=C1Br)CC(C(=O)NCCCCNC(=O)C1=NOC3(C=C(Br)C(OC)=C(Br)C3O)C1)=NO2` (stereo unspecified), the TGI was 55.4 µM in [1]; over 100 µM in assay [2]; 52.8 µM in assay [3]; 36.6 µM in assay [4]; 38.9 µM in [9]; 40.3 µM in assay [10]. Moreover, the TGI in assay [6] is 50.3 µM; in assay [8], over 100 µM.
Take `CC(=O)OC12c3ccccc3-c3ccccc3C1C(C(=O)O)C2(Cl)C(=O)O` (stereo unspecified): the TGI in [1], in assay [2], in assay [3], in assay [4], in assay [9] and in assay [10] was over 10 µM each time. The TGI in assay [6] and in assay [8] was over 10 µM throughout.
As for `C=C1CC[C@@H]2[C@](C)(COC(C)=O)[C@H](OC(C)=O)CC[C@@]2(C)[C@@H]1CC(Nc1ccc(S(=O)(=O)Nc2cc(C)on2)cc1)C1=CCOC1=O` (stereo partly specified), the GI50 in assay [1] is 1.57 µM; in assay [2], 1.32 µM; in assay [3] it was 2.95 µM; in assay [4], 2.11 µM; in assay [9] it was 0.375 µM; in assay [10] it was 0.477 µM. Also, the GI50 in assay [6] was 1.59 µM; in assay [8], 2.14 µM. Besides, the TGI worked out at 8.42 µM in [1]; 2.91 µM in assay [2]; 6.19 µM in [3]; 4.65 µM in [4]; 3.36 µM in [9]; 2.71 µM in assay [10]. The TGI in assay [6] turned out to be 3.06 µM; in assay [8], 4.05 µM.
As to `COC(=O)C1=Cc2cc(OC)c(OC)cc2[C@H](c2ccc(OC)c(OC)c2)C1C(=O)OC` (stereo partly specified), the TGI in [1], in [2], in [3], in assay [4], in [9] and in assay [10] was over 100 µM each time. The TGI in assay [5], in [6] and in assay [8] was over 100 µM in each case.
